Measurements published in PubChem BioAssay (NCI).
“And” between values parts separate entries of the source, which are not always exact repeats. Equal values may be shown once.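 1) Cells in 96-well plates. 2) Compound, 48 h, 5 concentrations. 3) Linear interpolation between surrounding doses. 4) Unreached endpoint = highest concentration. GI50 is the concentration that inhibits growth by half. Definition used: TGI = concentration required for complete inhibition of growth.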

Key:
Assay in all cases: DTP human tumour cell line panel, 48 h
HCC-2998 colon = system: HCC-2998 colon
MOLT-4 leukemia = system: MOLT-4 leukemia
HL-60(TB) leukemia = system: HL-60(TB) leukemia
CCRF-CEM leukemia = system: CCRF-CEM leukemia
HOP-62 NSCLC = system: HOP-62 NSCLC
SN12C renal = system: SN12C renal
ACHN renal = system: ACHN renal
CAKI-1 renal = system: CAKI-1 renal
OVCAR-5 ovarian = system: OVCAR-5 ovarian
SF-295 CNS = system: SF-295 CNS

Row | SMILES | TGI (HCC-2998 colon) | TGI (MOLT-4 leukemia) | TGI (HL-60(TB) leukemia) | TGI (CCRF-CEM leukemia) | TGI (HOP-62 NSCLC) | TGI (SN12C renal) | TGI (ACHN renal) | TGI (CAKI-1 renal) | TGI (OVCAR-5 ovarian) | TGI (SF-295 CNS) | GI50 (HCC-2998 colon) | GI50 (MOLT-4 leukemia) | GI50 (HL-60(TB) leukemia) | GI50 (CCRF-CEM leukemia) | GI50 (HOP-62 NSCLC) | GI50 (SN12C renal) | GI50 (ACHN renal) | GI50 (CAKI-1 renal) | GI50 (OVCAR-5 ovarian) | GI50 (SF-295 CNS)
1 | N#CC(C#N)=C(N)/C(C#N)=C\c1ccnc2ccccc12 | > 100 µM | 47.9 µM | 4.69 µM | 10.3 µM | 56.5 µM | 60 µM | > 100 µM | 92.1 µM | > 100 µM | 80.4 µM |  |  |  |  |  |  |  |  |  | 
2 | COc1ccc(/C=C/c2cc(OC)c(OC)c(OC)c2)cc1NC(=O)/C=C/c1ccc(F)cc1 | > 28.2 µM | > 100 µM | 7.47 µM | > 31.1 µM | > 100 µM | > 100 µM | > 100 µM | > 100 µM | > 100 µM | 64.4 µM | 1.94 µM | 4.48 µM | 1.8 µM | 2.99 µM | 3.84 µM | 5.56 µM | 6.3 µM | 2.11 µM | 5.97 µM | 1.57 µM
3 | C=CC(=O)N1CCCC(n2nc(-c3ccc(Oc4ccccc4)cc3)c3c(N)ncnc32)C1 (stereo not given) | 30.8 µM | 25.8 µM | 44.5 µM | 42.6 µM | 26.1 µM | 16.1 µM | 15.8 µM | 10.6 µM | 27.6 µM | 23.8 µM | 16 µM | 4.28 µM | 21.9 µM | 8.02 µM | 12.9 µM | 2.3 µM | 0.248 µM | 0.107 µM | 13.1 µM | 7.71 µM
4 | Cc1ccc(C(=O)c2oc3ccc4c(C)cc(=O)oc4c3c2C)cc1 | > 100 µM | > 100 µM | > 100 µM | > 100 µM | > 100 µM | > 100 µM | 94.3 µM | > 100 µM | > 100 µM | 30.2 µM | 24 µM | 63.6 µM | 13.4 µM | > 100 µM | 12.2 µM | 10.4 µM | 3.65 µM | 5.78 µM | 11.2 µM | 2.19 µM
5 | O=C1C(Br)=C[C@H]2C3C=CC(Br)(C3=O)[C@@H]12 (stereo not given in full) | 26.2 µM | 27.2 µM | 23 µM | 13.7 µM | 92.5 µM | 25.9 µM | 34.3 µM | 24 µM | 29 µM | 51 µM |  |  |  |  |  |  |  |  |  | 
6 | COc1cc(OC)c(/C=C/c2ccc3ccccc3[n+]2C)c(OC)c1 | 5.6 µM | 4.77 µM | 2.92 µM | 6.49 µM | 12.1 µM | 16.9 µM | > 75.5 µM | > 49.2 µM | 25.2 µM | 4.25 µM | 0.811 µM | 1.35 µM | 0.363 µM | 0.697 µM | 1.13 µM | 0.36 µM | 4.32 µM | 8.55 µM | 3.09 µM | 0.549 µM
7 | CN(C(=O)c1ccc(Cl)s1)C(=S)N(C)C(=O)c1ccc(Cl)s1 | > 10 µM | > 10 µM | > 10 µM | > 10 µM | > 10 µM | > 10 µM | > 10 µM | > 10 µM | > 10 µM | > 10 µM |  |  |  |  |  |  |  |  |  | 
8 | COc1ccc(-c2c(C3=NCCN3)nnn2-c2ccccc2)cc1 | > 100 µM | > 100 µM | > 100 µM | > 100 µM | > 100 µM | > 100 µM | > 100 µM | > 100 µM | > 100 µM | > 100 µM |  |  |  |  |  |  |  |  |  | 
9 | C=CCCCCCCCCCCCC1CCC(CC)N1 (stereo not given) | 8.04 µM | 17 µM | 9.01 µM | 29 µM | 28.5 µM | 24.3 µM | 31.1 µM | 25.4 µM | 22.6 µM | 27.8 µM |  |  |  |  |  |  |  |  |  | 
10 | COC(=O)CCC/C=C\C[C@H]1C=CC(=O)/C1=C/C[C@@H](O)CCc1cccc(C(F)(F)F)c1 | 3.35 µM | 6.46 µM | 7.17 µM | 12 µM | 9.15 µM | 16.9 µM | 3.54 µM | 14.7 µM | 12.7 µM | 5.21 µM | 1.83 µM | 2.29 µM | 2.53 µM | 1.09 µM | 3.32 µM | 4.2 µM | 1.83 µM | 3.89 µM | 3.79 µM | 2.12 µM
11 | O=C(Nc1ccc(Cl)cc1)Nc1ccc(Cl)c(Cl)c1 | 44.5 µM | > 100 µM | 7.69 µM | 7.8 µM | > 100 µM | > 100 µM | > 100 µM | > 100 µM | > 100 µM | > 100 µM | 3.9 µM | 2.65 µM | 2.84 µM | 2.25 µM | 4.7 µM | 3.42 µM | 3.71 µM | 2.96 µM | 4.29 µM | 4.02 µM
12 | CCC(=O)c1cn(C)c(=O)c2ccccc12 | > 100 µM | > 100 µM | > 100 µM | > 100 µM | > 100 µM | > 100 µM | > 100 µM | > 100 µM | > 100 µM | > 100 µM |  |  |  |  |  |  |  |  |  | 
13 | COc1ccc(NC(=O)C2C(=O)N(c3ccc(OC)cc3)C(=O)/C2=N/O)cc1 (stereo not given) | 47.2 µM | > 100 µM | > 100 µM | > 100 µM | 43.3 µM | 71.9 µM | 43.2 µM | > 77.3 µM | > 100 µM | 52.5 µM |  |  |  |  |  |  |  |  |  | 
14 | COc1ccc2c(c1)C(=O)CC(N)C2 (stereo not given) | > 100 µM | > 100 µM | > 100 µM | > 100 µM | > 100 µM | > 100 µM | > 100 µM | > 100 µM | > 100 µM | > 100 µM |  |  |  |  |  |  |  |  |  | 
15 | COc1cc(OC2OC(C)C(O)C(O)C2O)cc2oc(-c3ccc(O)cc3)c(CC=C(C)C)c(=O)c12 (stereo not given) | 40.8 µM | 17.7 µM | 16.2 µM | 31.8 µM | 49.6 µM | 45.3 µM | 59.8 µM | 40.7 µM | 69.2 µM | > 100 µM | 16.6 µM | 3.45 µM | 3.5 µM | 5.97 µM | 18.2 µM | 12.3 µM | 22 µM | 14.1 µM | 31.4 µM | 33.9 µM
16 | CC(=O)OCC1OC(n2c(-c3ccccc3)cc(-c3ccco3)c(C#N)c2=O)C(OC(C)=O)C(OC(C)=O)C1OC(C)=O (stereo not given) | > 100 µM | > 100 µM | > 100 µM | > 100 µM | > 100 µM and 65.4 µM | > 100 µM | > 100 µM | > 100 µM | > 100 µM | > 100 µM |  |  |  |  | > 100 µM and 22.1 µM | 77.2 µM and 23.5 µM |  |  |  | 
17 | c1cnc2c(c1)-n1cccc1C1(CCSCC1)NN2 | > 100 µM | > 100 µM | > 100 µM | > 100 µM | > 100 µM | > 100 µM | > 100 µM | > 100 µM | > 100 µM | > 100 µM |  |  |  |  |  |  |  |  |  | 
18 | Clc1nc(Oc2ccccc2)nc(-c2cn(-c3ccccc3)c3ccccc23)n1 | 27.3 µM | 21.9 µM |  | 20.3 µM | 29.4 µM | 20.1 µM | 21.1 µM | 12.9 µM | 52.7 µM | > 61 µM | 13.8 µM | 0.79 µM | 0.773 µM | 3.99 µM | 15.2 µM | 6.18 µM | 8.16 µM | 5.69 µM | 22.9 µM | > 44.7 µM
19 | O=C(Nc1ccccc1C(F)(F)F)c1cccc(NC2=C(Cl)C(=O)N(Cc3ccccc3)C2=O)c1 | 50.8 µM | 30.8 µM | > 100 µM | 31.7 µM | > 52.2 µM | > 57.4 µM | 26.9 µM | > 67.2 µM | > 100 µM | > 45.5 µM | 21.5 µM | 4.29 µM | 31.8 µM | 10.4 µM | 19.1 µM | 7.49 µM | 5.39 µM | 21.1 µM | 20 µM | > 19.9 µM
20 | COc1cc2nc(-c3ccc(C(F)(F)F)cc3)cc(OCCCN3CCOCC3)c2cc1OC | 5.57 µM | 14.9 µM | 47.3 µM | 19.3 µM | 13.1 µM | 19.7 µM | 18.2 µM | 11.2 µM | 18.8 µM | 1.68 µM | 1.41 µM | 2.51 µM | 9.58 µM | 2.79 µM | 1.67 µM | 0.675 µM | 2.01 µM | 0.167 µM | 1.92 µM | 0.349 µM
21 | CC(C)c1ccc(Cc2cnc(NC(=O)c3cc(Br)cs3)s2)cc1 | > 100 µM | > 100 µM | > 100 µM | > 100 µM | 29.2 µM | > 100 µM | > 100 µM | > 100 µM | > 100 µM | 19.6 µM | 3.65 µM | 7.59 µM | 3.6 µM | 4.08 µM | 3.05 µM | 4.21 µM | 4.64 µM | 1.16 µM | 4.95 µM | 2 µM
22 | CC1CC(c2ccccc2)=Nc2ccccc2S1(=O)=O (stereo not given) | 19.5 µM | 33.3 µM | 52.8 µM | 43.4 µM | 39.8 µM | 34.3 µM | 30.1 µM | 48.5 µM | 35.7 µM | 39.4 µM |  |  |  |  |  |  |  |  |  | 
23 | Nc1nc(-c2cccc([N+](=O)[O-])c2)c(Br)c(=O)[nH]1 | > 100 µM | > 100 µM | > 100 µM | > 100 µM | > 100 µM | > 100 µM | > 100 µM | > 100 µM | > 100 µM | > 66.6 µM |  |  |  |  |  |  |  |  |  | 
24 | CCOc1ccccc1NC(=O)/C=C1\NC(=O)CS1 | > 100 µM | > 100 µM | > 100 µM | > 100 µM | > 100 µM | > 100 µM |  | > 100 µM | > 100 µM | > 100 µM |  |  |  |  |  |  |  |  |  | 
